Test results: patent publication US9115147B2, “Tricyclic derivatives and their pharmaceutical use and compositions” (Cephalon, Inc., priority 2009, dated 2015)

These molecules were tested against T1, human 5-HT6 receptor (Homo sapiens, UniProt P50406) (assay: Human 5-HT6 Receptor Binding Assay ([3H]LSD, scintillation beads)). Settings: Human 5-HT6 Ki (nM), actual data; membranes of CHO-K1 cells with recombinant human 5-HT6 receptor, 4 nM [3H]LSD.
T1 construct: host or cells: CHO-K1 cells, stably transfected; membranes prepared in house
Method: Human 5-HT6 Receptor Binding Assay
Membranes were prepared from CHO-K1 cells stably transfected with the human 5-HT6 receptor (Euroscreen; ES-316-C). The cells were grown in Gibco Advanced DMEM-F12 (Cat#12634010) containing 2% dialyzed FBS (Hyclone Cat#SH30079.03). The cells were harvested in phosphate buffered saline (PBS) containing 0.1 mM EDTA and pelleted by centrifugation (1000×g), the supernatant was discarded and the pellets were stored at −80° C. prior to membrane preparation. Membranes were prepared as previously described (J Bio Chem. 1992, 267 (14) 9844-51). Briefly, frozen cell pellet was resuspended in a lysis buffer containing 5 mM Tris-HCl (pH 7.5), 5 mM EDTA and 1 complete EDTA-free protease inhibitor tablet (Roche Applied Science, Indianapolis, Ind.) per 50 mL buffer, and homogenized with a tissue homogenizer. The cell lysate was then centrifuged at 40,000×g for 30 min at 4° C. to collect the membranes. The membrane pellets were washed in membrane buffer (50 mM Tris-HCl (pH 7.5), 0.6 mM EDTA, 5 mM MgCl2, 1 complete EDTA-free protease inhibitor tablet per 50 mL buffer) using a tissue homogenizer. The membranes were centrifuged at 40,000×g for 30 min at 4° C. and the pellets were resuspended in membrane buffer containing 250 mM sucrose, and protein concentration was determined using the Coomassie Plus kit (Pierce Biotechnology, Rockford, Ill.).
Membranes prepared from cells expressing recombinant human 5-HT6 receptor (h5-HT6) were resuspended in assay buffer containing 50 mM Tris HCl, (pH7.4), 4 mM CaCl2, 10 μg/mL saponin, and 0.1% (w/v) ascorbic acid. Membranes were preincubated using 1.75 μg membrane protein and 0.25 mg FlashBlue scintillation beads (PerkinElmer catalogue #FB001) per well at 4° C. for 30 min. […] Test compounds or assay controls for total and non-specific binding were diluted in DMSO as 100× solutions and serially diluted by half log concentrations on a Perkin Elmer JANUS Automated Workstation. Serotonin (10 μM final concentration) was used to determine non-specific binding in the assay. Plates were read using the Microbeta Trilux 1450 LSC and luminescence counter. Data were analyzed by nonlinear […] using the dose-response equation (variable slope) to calculate IC50 in XLfit4 (ID Business Solutions Inc.): y=(Bottom+((Top−Bottom)/(1+((IC50/x)^Hill slope))))
Ki value was then calculated according to the Cheng-Prusoff method using the equation below (Cheng and Prusoff, 1973): Ki, app=IC50/(1+([radioligand]/Kd))

T1 sequence (P50406 whole entry): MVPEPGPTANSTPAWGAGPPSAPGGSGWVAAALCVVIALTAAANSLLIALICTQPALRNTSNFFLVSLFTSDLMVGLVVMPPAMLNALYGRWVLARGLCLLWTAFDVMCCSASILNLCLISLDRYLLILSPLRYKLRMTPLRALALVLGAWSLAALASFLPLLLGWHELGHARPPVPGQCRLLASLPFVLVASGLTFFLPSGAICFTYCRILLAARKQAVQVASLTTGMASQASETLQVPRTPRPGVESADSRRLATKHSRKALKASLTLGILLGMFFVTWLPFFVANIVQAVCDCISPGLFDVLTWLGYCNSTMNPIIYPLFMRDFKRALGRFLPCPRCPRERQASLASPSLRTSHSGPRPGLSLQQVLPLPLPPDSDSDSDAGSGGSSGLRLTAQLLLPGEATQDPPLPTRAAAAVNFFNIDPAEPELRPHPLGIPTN

**Q.** COc1cncc(S(=O)(=O)c2ccc3c(c2)OCC2NCCC32)c1 (racemic) [Example 110, 7-[(5-methoxypyridin-3-yl)sulfonyl]-1,2,3,3a,4,9b-hexahydrochromeno[3,4-b]pyrrole] was tested. Which Ki did it give?
**A.** The Ki was 98.4 nM.

**Q.** How did the Ki turn out when Cc1cccc([S+]([O-])c2ccc3c(c2)OCC2NCCC32)n1 (single isomer, unassigned) [Example 22, 7-[(6-methylpyridin-2-yl)sulfinyl]-1,2,3,3a,4,9b-hexahydrochromeno[3,4-b]pyrrole] was run?
**A.** The Ki was 51.5 nM.

Same assay, conditions: Human 5-HT6 Ki app (nM), membranes of CHO-K1 cells with recombinant human 5-HT6 receptor, 4 nM [3H]LSD, Cheng-Prusoff

**Q.** For COc1cncc(S(=O)(=O)c2ccc3c(c2)OCC2NCCC32)c1 (racemic) [Example 110, 7-[(5-methoxypyridin-3-yl)sulfonyl]-1,2,3,3a,4,9b-hexahydrochromeno[3,4-b]pyrrole], which Ki is on record?
**A.** Its Ki is under 500 nM.

**Q.** O=S(=O)(c1cncc(Cl)c1)c1ccc2c(c1)OCC1NCCC21 (racemic) [Example 111, 7-[(5-chloropyridin-3-yl)sulfonyl]-1,2,3,3a,4,9b-hexahydrochromeno[3,4-b]pyrrole] was tested. Which Ki did it give?
**A.** Its Ki is under 500 nM.

**Q.** How did the Ki turn out when Cc1cccc([S+]([O-])c2ccc3c(c2)OCC2NCCC32)n1 (single isomer, unassigned) [Example 22, 7-[(6-methylpyridin-2-yl)sulfinyl]-1,2,3,3a,4,9b-hexahydrochromeno[3,4-b]pyrrole] was run?
**A.** The Ki was under 500 nM.

Same assay, conditions: actual data; membranes of CHO-K1 cells with recombinant human 5-HT6 receptor, 4 nM [3H]LSD; read-out: Human 5-HT6 Ki

**Q.** For O=S(=O)(c1ccccc1)c1ccc2c(c1)OCC1NCCC21 (racemic) [Example 104, 7-(phenylsulfonyl)-1,2,3,3a,4,9b-hexahydrochromeno[3,4-b]pyrrole], which Ki is on record?
**A.** Its Ki is 2.5 nM.

Same assay, conditions: membranes of CHO-K1 cells with recombinant human 5-HT6 receptor, 4 nM [3H]LSD, Cheng-Prusoff; read-out: Human 5-HT6 Ki app

**Q.** Which Ki does the source give for [O-][S+](c1ccccc1)c1ccc2c(c1)OCC1NCCC21 (racemic) [Example 25, 7-(Phenylsulfinyl)-1,2,3,3a,4,9b-hexahydrochromeno[3,4-b]pyrrole] here?
**A.** Its Ki is under 500 nM.

**Q.** Which Ki does the source give for [O-][S+](c1ccccc1)c1ccc2c(c1)OCC1NCCC21 (racemic) [Example 26, 7-(Phenylsulfinyl)-1,2,3,3a,4,9b-hexahydrochromeno[3,4-b]pyrrole] here?
**A.** Its Ki is over 1000 nM.

**Q.** O=S(=O)(c1ccccc1)c1ccc2c(c1)OCC1NCCC21 (racemic) [Example 104, 7-(phenylsulfonyl)-1,2,3,3a,4,9b-hexahydrochromeno[3,4-b]pyrrole] was tested. Which Ki did it give?
**A.** The Ki was under 500 nM.

**Q.** With O=S(=O)(c1cc(F)cc(F)c1)c1ccc2c(c1)OCC1NCCC21 (racemic) [Example 105, 7-[(3,5-difluorophenyl)sulfonyl]-1,2,3,3a,4,9b-hexahydrochromeno[3,4-b]pyrrole] as the molecule, how does the Ki read?
**A.** The Ki was under 500 nM.

**Q.** Which Ki does the source give for [O-][S+](c1ccccc1)c1ccc2c(c1)OCC1NCCC21 (racemic) [Example 106, 7-(phenylsulfinyl)-1,2,3,3a,4,9b-hexahydrochromeno[3,4-b]pyrrole] here?
**A.** The Ki was under 500 nM.

**Q.** CC(C)Oc1cccc(S(=O)(=O)c2ccc3c(c2)OCC2NCCC32)c1 (racemic) [Example 107, 7-{[3-(propan-2-yloxy)phenyl]sulfonyl}-1,2,3,3a,4,9b-hexahydrochromeno[3,4-b]pyrrole] was tested. Which Ki did it give?
**A.** Its Ki is under 500 nM.

**Q.** How did the Ki turn out when COc1cc(F)cc(S(=O)(=O)c2ccc3c(c2)OCC2NCCC32)c1 (racemic) [Example 109, 7-[(3-fluoro-5-methoxyphenyl)sulfonyl]-1,2,3,3a,4,9b-hexahydrochromeno[3,4-b]pyrrole] was run?
**A.** The Ki was under 500 nM.

**Q.** For O=S(=O)(c1cccc(F)c1)c1ccc2c(c1)OCC1NCCC21 (single isomer, unassigned) [Example 1, 7-[(3-fluorophenyl)sulfonyl]-1,2,3,3a,4,9b-hexahydrochromeno[3,4-b]pyrrole], which Ki is on record?
**A.** Its Ki is under 500 nM.

**Q.** Which Ki does the source give for O=S(=O)(c1cccc(Cl)c1)c1ccc2c(c1)OCC1NCCC21 (single isomer, unassigned) [Example 2, 7-[(3-chlorophenyl)sulfonyl]-1,2,3,3a,4,9b-hexahydrochromeno[3,4-b]pyrrole] here?
**A.** The Ki was under 500 nM.

**Q.** O=S(=O)(c1cc(Cl)cc(Cl)c1)c1ccc2c(c1)OCC1NCCC21 (single isomer, unassigned) [Example 3, 7-[(3,5-dichlorophenyl)sulfonyl]-1,2,3,3a,4,9b-hexahydrochromeno[3,4-b]pyrrole] was tested. Which Ki did it give?
**A.** The Ki was under 500 nM.

**Q.** How did the Ki turn out when O=S(=O)(c1ccc(F)cc1)c1ccc2c(c1)OCC1NCCC21 (single isomer, unassigned) [Example 4, 7-[(4-fluorophenyl)sulfonyl]-1,2,3,3a,4,9b-hexahydrochromeno[3,4-b]pyrrole] was run?
**A.** Its Ki is under 500 nM.

**Q.** With O=S(=O)(c1cc(F)cc(Cl)c1)c1ccc2c(c1)OCC1NCCC21 (single isomer, unassigned) [Example 6, 7-[(3-chloro-5-fluorophenyl)sulfonyl]-1,2,3,3a,4,9b-hexahydrochromeno[3,4-b]pyrrole] as the molecule, how does the Ki read?
**A.** The Ki was under 500 nM.

**Q.** Which Ki does the source give for O=S(=O)(c1cccc(OC(F)(F)F)c1)c1ccc2c(c1)OCC1NCCC21 (single isomer, unassigned) [Example 7, 7-{[3-(trifluoromethoxy)phenyl]sulfonyl}-1,2,3,3a,4,9b-hexahydrochromeno[3,4-b]pyrrole] here?
**A.** The Ki was under 500 nM.

**Q.** For O=S(=O)(c1cccc(C(F)(F)F)c1)c1ccc2c(c1)OCC1NCCC21 (single isomer, unassigned) [Example 8, 7-{[3-(trifluoromethyl)phenyl]sulfonyl}-1,2,3,3a,4,9b-hexahydrochromeno[3,4-b]pyrrole], which Ki is on record?
**A.** Its Ki is under 500 nM.

**Q.** How did the Ki turn out when CC(C)Oc1cccc(S(=O)(=O)c2ccc3c(c2)OCC2NCCC32)c1 (single isomer, unassigned) [Example 9, 7-{[3-(propan-2-yloxy)phenyl]sulfonyl}-1,2,3,3a,4,9b-hexahydrochromeno[3,4-b]pyrrole] was run?
**A.** The Ki was under 500 nM.

**Q.** For O=S(=O)(c1cccc(F)c1)c1ccc2c(c1)OCC1NCCC21 (single isomer, unassigned) [Example 10, 7-[(3-fluorophenyl)sulfonyl]-1,2,3,3a,4,9b-hexahydrochromeno[3,4-b]pyrrole], which Ki is on record?
**A.** The Ki was under 500 nM.

**Q.** How did the Ki turn out when O=S(=O)(c1cccc(Cl)c1)c1ccc2c(c1)OCC1NCCC21 (single isomer, unassigned) [Example 11, 7-[(3-chlorophenyl)sulfonyl]-1,2,3,3a,4,9b-hexahydrochromeno[3,4-b]pyrrole] was run?
**A.** Its Ki is under 500 nM.

**Q.** How did the Ki turn out when O=S(=O)(c1cc(Cl)cc(Cl)c1)c1ccc2c(c1)OCC1NCCC21 (single isomer, unassigned) [Example 12, 7-[(3,5-dichlorophenyl)sulfonyl]-1,2,3,3a,4,9b-hexahydrochromeno[3,4-b]pyrrole] was run?
**A.** The Ki was under 500 nM.

**Q.** O=S(=O)(c1ccc(F)cc1)c1ccc2c(c1)OCC1NCCC21 (single isomer, unassigned) [Example 13, 7-[(4-fluorophenyl)sulfonyl]-1,2,3,3a,4,9b-hexahydrochromeno[3,4-b]pyrrole] was tested. Which Ki did it give?
**A.** The Ki was under 500 nM.

**Q.** For O=S(=O)(c1cc(F)cc(F)c1)c1ccc2c(c1)OCC1NCCC21 (single isomer, unassigned) [Example 14, 7-[(3,5-difluorophenyl)sulfonyl]-1,2,3,3a,4,9b-hexahydrochromeno[3,4-b]pyrrole], which Ki is on record?
**A.** Its Ki is under 500 nM.

**Q.** How did the Ki turn out when O=S(=O)(c1cc(F)cc(Cl)c1)c1ccc2c(c1)OCC1NCCC21 (single isomer, unassigned) [Example 15, 7-[(3-chloro-5-fluorophenyl)sulfonyl]-1,2,3,3a,4,9b-hexahydrochromeno[3,4-b]pyrrole] was run?
**A.** The Ki was under 500 nM.

**Q.** O=S(=O)(c1cccc(OC(F)(F)F)c1)c1ccc2c(c1)OCC1NCCC21 (single isomer, unassigned) [Example 16, 7-{[3-(trifluoromethoxy)phenyl]sulfonyl}-1,2,3,3a,4,9b-hexahydrochromeno[3,4-b]pyrrole] was tested. Which Ki did it give?
**A.** Its Ki is under 500 nM.

**Q.** For O=S(=O)(c1cccc(C(F)(F)F)c1)c1ccc2c(c1)OCC1NCCC21 (single isomer, unassigned) [Example 17, 7-{[3-(trifluoromethyl)phenyl]sulfonyl}-1,2,3,3a,4,9b-hexahydrochromeno[3,4-b]pyrrole], which Ki is on record?
**A.** Its Ki is under 500 nM.

**Q.** How did the Ki turn out when CC(C)Oc1cccc(S(=O)(=O)c2ccc3c(c2)OCC2NCCC32)c1 (single isomer, unassigned) [Example 18, 7-{[3-(propan-2-yloxy)phenyl]sulfonyl}-1,2,3,3a,4,9b-hexahydrochromeno[3,4-b]pyrrole] was run?
**A.** The Ki was under 500 nM.

**Q.** With O=S(=O)(c1ccc2c(c1)OCC1NCCC21)c1cccc2ccccc12 (single isomer, unassigned) [Example 19, 7-(naphthalen-1-ylsulfonyl)-1,2,3,3a,4,9b-hexahydrochromeno[3,4-b]pyrrole] as the molecule, how does the Ki read?
**A.** Its Ki is under 500 nM.

**Q.** With O=S(=O)(c1ccc2c(c1)OCC1NCCC21)c1cccc2ccccc12 (single isomer, unassigned) [Example 20, 7-(naphthalen-1-ylsulfonyl)-1,2,3,3a,4,9b-hexahydrochromeno[3,4-b]pyrrole] as the molecule, how does the Ki read?
**A.** The Ki was under 500 nM.

**Q.** How did the Ki turn out when Cc1cccc(Sc2ccc3c(c2)OCC2NCCC32)n1 (single isomer, unassigned) [Example 21, 7-[(6-methylpyridin-2-yl)sulfanyl]-1,2,3,3a,4,9b-hexahydrochromeno[3,4-b]pyrrole] was run?
**A.** The Ki was over 1000 nM.
